Inhibition in vivo data for one compound are collected here from US8901309B2, “Fused triazoles for the treatment or prophylaxis of mild cognitive impairment” (Takeda Pharmaceutical Company Limited, priority 2010, dated 2014).

The test system of the assay is Aβ42 in hippocampi of C57BL/6J mice. The experiment in a line: Hippocampal soluble Aβ42 ELISA in mice after oral administration. The format is in vivo, mouse. The conditions noted are these: Mus musculus, po, 3 h, 10 mg/kg orally, hippocampi isolated 3 hours after administration, soluble Aβ42 by ELISA, read-out: Aβ42 production inhibitory activity (% inhibition). As for the experimental part:
Measurement of Amyloid β Production Inhibition Rate Using Primary Nerve Cell
C57BL/6J mice (7-10 weeks old) were purchased from CLEA Japan Inc. Mice were housed in groups and kept on a 12h-light; 12h-dark schedule. All mice were given ad libitum access to food and water.
Each test compound was reconstituted in solubilization buffer ([DMSO (Wako)]: [10% Cremophor (Nakarai)+30% polyethylene glycol 400 (Wako)+60% 2 mol/L Citrate buffer (Wako)]=1:9) and orally administrated at 10 mg/kg.
Hippocampi was isolated from animals, 3 hours after test compounds were orally administrated. Hippocampi were homogenized in ice-cold Tris-extraction buffer (50 mmol/L Tris-HCl, pH 7.2, 200 mmol/L sodium chloride, 2% protease-free bovine serum albumin, and 0.01% sodium merthiolate) containing protease inhibitor cocktails (Roche, Switzerland). After centrifugation at 15,000 rpm for 15 minutes, the supernatants were subjected to two-site sandwich ELISA to measure amount of soluble Aβ. Aβ42 was quantitated by two-site sandwich ELISA using BNT77, which recognizes Aβ11-28, as a capture antibody and BC05-HRP as a detector antibody, respectively.
Background: An ELISA detects its analyte on a solid surface through an enzyme-linked reagent.

`COc1nc(-c2nnc3n2CCCC3(Oc2cc(F)c(F)c(F)c2)C(C)(C)O)ccc1-n1cnc(C)c1` (stereo not shown) [Example 134, 2-{3-[6-methoxy-5-(4-methyl-1H-imidazol-1-yl)pyridin-2-yl]-8-(3,4,5-trifluorophenoxy)-5,6,7,8-tetrahydro[1,2,4]triazolo[4,3-a]pyridin-8-yl}propan-2-ol]: the inhibition in vivo at 10 mg/kg amounted to 31%.
